Here are results for 4 compounds from article PMC8399565, “Fluorescence Cross-Correlation Spectroscopy Yields True Affinity and Binding Kinetics of Plasmodium Lactate Transport Inhibitors” (Pharmaceuticals, 2021).

Entries after “also recorded” stand apart in the source; their conditions may differ. Like-named read-outs stand apart in the source and are kept apart here. A value given as a limit tells only on which side of the number the result lay.

One assay concerns the target T1, PfFNT wt-GFP (Plasmodium falciparum, UniProt O77389).
T1 construct: The DNA of full-length PfFNT from Plasmodium falciparum 3D7 was cloned as a C-terminal GFP fusion; expressed in transfected cells; intact cells for imaging, LMNG-solubilized membranes or lysates for FCCS
Briefly: FCCS equilibrium saturation binding to solubilized PfFNT wildtype. Particulars: for obtained concentration of complexes in saturation binding: same sample of solubilized membranes for both tracers; for Active Receptor (%): fraction of PfFNT-GFP involved in binding at saturation. The method, then: A total of 20 µL of solubilized membranes from HEK cells expressing PfFNT wildtype or G107S were transferred to a glass-bottom 384-well microtiter plate and analyzed for expression levels via GFP fluorescence intensity as well as diffusion times. This yielded a PfFNT protein concentration of 10 nM after membrane preparation and solubilization. The average dwell time was determined to 373 µs, which is in good agreement with membrane proteins of equal size. The signal fluctuations could be fitted to a 1-component diffusion model, indicating homogeneously monodisperse proteins (Figure S2).
Next, we determined inhibitor binding affinities for both PfFNT and its G107S mutant. Solubilized cell membranes containing PfFNT-GFP at a concentration of 10 nM were incubated for 1 h at ambient temperature with increasing concentrations of labeled inhibitor molecules to obtain saturation binding curves and to calculate the dissociation constant (KD) of the interactions. Equilibrium binding experiments were pipetted in biological triplicates and carried out and analyzed as described in Antoine et al..
A cell pellet was resuspended in 1 mL of ice-cold TBS (50 mM Tris-HCl (pH 7.4) and 150 mM NaCl) supplemented with cOmplete™ Protease Inhibitor Cocktail (cat. no 11697498001, Roche, Switzerland) and broken by sonication on ice, using an Ultrasonic homogenizer SONOPULS HD 2070 (Bandelin, Germany). Cell debris was removed by centrifugation for 5 min at 1100× g at 4 °C, and membranes were harvested from the cleared lysate by subsequent centrifugation at 21,000× g. The resulting pellet containing cellular membranes was lysed using a Dounce homogenizer. The receptor was solubilized by incubation in 1% LMNG (cat. no NG310, Anatrace, USA) or in another detergent (DDM, DM, CHAPS, CHS, LDAO) when conducting tests to determine the best solubilization conditions. The insolubilized membrane material was removed by centrifugation for 1 h at 21,000× g at 4 °C, and the supernatant was collected and directly subjected to FCCS analysis or stored at −80 °C.
(§1) FCCS measurements were conducted in 384-well glass-bottom plates (cat. no PS96B-G175, SWISSCI, Switzerland) using an Insight plate reader (Evotec Technologies, Germany) fitted with a U-Apo300 40x water immersion lens, NA 1.15 (Olympus, Japan). The 488 nm laser line of an argon-ion laser and the light of a 633 nm helium–neon laser were used for excitation. Fluorescence fluctuations were recorded for 8 s with 12 repetitions and analyzed afterward using FCS+plus Analyze 1.1P (Evotec technologies, Version 1.2.5g). FCCS analysis was carried out as described previously. Briefly, for measuring the dissociation constant (KD), a titration series of 12 dilutions was prepared, where the concentration of the lysates obtained from HEK cells expressing GFP-fusions of PfFNT WT and G107S was kept constant, and the concentration of the labeled binding partner (BH296-DY647 and BH267.meta-DY647, respectively) was varied. The IC50 values were calculated by plotting the concentration from the dual labeled complex against the concentration of the competitor titrated over a concentration range from 10 µM to 10 pM. Samples were incubated for 1 h at room temperature prior to FCCS measurements to allow the formation of drug target complexes. From the resulting IC50 values, the Ki values were obtained by application of the Cheng Prusoff equation [17]. To assess the rate constants, time-resolved measurements were carried out at different concentrations of the labeled ligand. […] All KD and IC50 values, as well as kinetic parameters, were determined from three independently repeated experiments. The figures show one representative measurement; however, the calculated KD, Ki, kon and koff values are presented as an average of the three measurements ± SD. Error bars denote ± SEM.

Another assay deals with T2, PfFNT G107S-GFP (Plasmodium falciparum, UniProt O77389, G107S).
T2 construct: The DNA of full-length PfFNT from Plasmodium falciparum 3D7 was cloned as a C-terminal GFP fusion; expressed in transfected cells; intact cells for imaging, LMNG-solubilized membranes for FCCS
Briefly: FCCS equilibrium competition binding, PfFNT G107S mutant. The method, then:
Figure 4 Affinity determination of BH296, BH267.meta to PfFNT and PfFNT G107S, and equilibrium saturation binding of BH296 and BH267.meta to PfFNT and PfFNT G107S. […] BH267.meta bound to 100% of the GFP-fusions of wildtype PfFNT. […] (c) Membrane preparations containing 10 nM of PfFNT-GFP were incubated with 70 nM BH296-DY647, and associated complexes competed with free compounds BH267.meta and BH296 to assess their Ki values. […] (e) Membrane preparations containing GFP fusions of mutant PfFNT G107S were mixed with 150 nM of the labeled BH267.meta tracer and competed with BH267.meta and BH296.
The Ki values calculated for the interaction of BH296 and BH267.meta to mutant PfFNT G107S confirm the affinities observed for the direct interaction with labeled inhibitors.
as §1, with “varied.” for “varied. The IC50 values were calculated by plotting the concentration from the dual labeled complex against the concentration of the competitor titrated over a concentration range from 10 µM to 10 pM. Samples were incubated for 1 h at room temperature prior to FCCS measurements to allow the formation of drug target complexes. From the resulting IC50 values, the Ki values were obtained by application of the Cheng Prusoff equation [17]. To assess the rate constants, time-resolved measurements were carried out at different concentrations of the labeled ligand.”, “Error bars denote ± SEM.” left out

A further assay has as its target T3, hsMCT4 (Homo sapiens, UniProt O15427).
T3 construct: expressed in transfected cells
T3 sequence (O15427 1-465): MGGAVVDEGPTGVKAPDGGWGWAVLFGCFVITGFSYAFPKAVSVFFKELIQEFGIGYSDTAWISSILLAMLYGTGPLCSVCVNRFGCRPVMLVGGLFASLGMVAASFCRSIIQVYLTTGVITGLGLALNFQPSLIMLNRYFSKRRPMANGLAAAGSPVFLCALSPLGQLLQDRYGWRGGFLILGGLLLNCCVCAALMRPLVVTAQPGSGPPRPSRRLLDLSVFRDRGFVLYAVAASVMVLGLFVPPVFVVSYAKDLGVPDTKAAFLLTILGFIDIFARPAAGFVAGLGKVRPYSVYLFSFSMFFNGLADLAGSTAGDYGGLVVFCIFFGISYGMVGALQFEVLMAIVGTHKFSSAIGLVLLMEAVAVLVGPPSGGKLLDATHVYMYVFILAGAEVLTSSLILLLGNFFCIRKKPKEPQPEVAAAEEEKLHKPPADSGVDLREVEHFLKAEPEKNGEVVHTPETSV
The assay is described as follows: Live cell confocal imaging, co-localization with hsMCT4-GFP in HEK cells. Type of assay: cell-based. To be noted: 50 nM BH296-DY647, hsMCT4-GFP in HEK cells. Here is the method: The monocarboxylate transporter hsMCT4 is a human functional homolog of PfFNT, but both proteins show no similarity on the basis of their primary sequence or transport mechanism.
The confocal laser scanning microscopy was performed on an LSM 510 confocal microscope connected to an Axiovert 200M equipped with a C-Apochromat 40×/1.2 W water immersion objective (Carl Zeiss, Germany). The red fluorophore (Dy-647) was excited using a 633 nm helium–neon laser, whereas the green fluorophore (GFP) was excited using a 488 nm argon-ion laser.

Assay [1] relates to FNT-type lactate transporters of the remaining four human-pathogenic plasmodia. To be noted: cited from earlier work.

T1 sequence (O77389 whole entry, the tested form may be a part): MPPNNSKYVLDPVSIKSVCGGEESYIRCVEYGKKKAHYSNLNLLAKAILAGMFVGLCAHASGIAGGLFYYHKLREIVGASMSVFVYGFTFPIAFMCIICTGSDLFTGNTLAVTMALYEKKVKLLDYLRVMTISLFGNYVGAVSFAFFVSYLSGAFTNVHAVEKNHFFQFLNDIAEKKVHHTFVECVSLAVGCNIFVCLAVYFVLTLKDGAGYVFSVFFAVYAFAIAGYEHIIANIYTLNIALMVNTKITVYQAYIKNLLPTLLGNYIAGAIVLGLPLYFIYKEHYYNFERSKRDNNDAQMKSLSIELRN
T2 sequence (O77389 whole entry G107S, the tested form may be a part): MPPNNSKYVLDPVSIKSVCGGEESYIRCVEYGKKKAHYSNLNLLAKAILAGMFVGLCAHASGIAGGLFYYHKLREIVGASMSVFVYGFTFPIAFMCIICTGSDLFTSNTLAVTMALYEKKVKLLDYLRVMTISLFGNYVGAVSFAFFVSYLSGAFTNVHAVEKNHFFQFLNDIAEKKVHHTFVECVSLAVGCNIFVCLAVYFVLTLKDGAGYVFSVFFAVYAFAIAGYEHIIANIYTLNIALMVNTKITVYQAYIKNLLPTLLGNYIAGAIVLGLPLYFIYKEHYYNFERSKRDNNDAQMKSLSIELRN

The Ki is the equilibrium dissociation constant of an inhibitor or competing ligand from its target. For `O=C(C=C(O)C(F)(F)C(F)(F)F)c1ccc(O)cc1` [BH296, 4,4,5,5,5-pentafluoro-3-hydroxy-1-(4-hydroxyphenyl)pent-2-en-1-one], at PfFNT wt-GFP, the Kd was found to be 67 nM and the “obtained concentration of complexes in saturation binding” value is recorded as 3 nM. On PfFNT G107S-GFP, this compound displayed a Ki of more than 10000 nM. For the same compound, the “Ki Competitor” value on PfFNT G107S-GFP (fluorescent probe BH267.meta-DY647 150 nM, competitor up to 10 µM) is on record as “did not compete; also recorded: does not interfere”.
Regarding `CCN1/C(=C/C=C/C=C/C2=[N+](CC)c3ccc(S(=O)(=O)O)cc3C2(C)CCCC(=O)NCCOCCOCCOCCOCCC(=O)NCCCOc2ccc(C(=O)/C=C(\O)C(F)(F)C(F)(F)F)cc2)C(C)(C)c2cc(S(=O)(=O)[O-])ccc21` (stereo not shown) [BH296-DY647], the Kd at PfFNT wt-GFP is 67 ± 6 nM. Moreover, the “co-localization on the plasma membrane” value at hsMCT4 is reported as “did not show any co-localization”.
`O=C(/C=C(\O)C(F)(F)C(F)(F)F)c1cccnc1` [BH267.meta]: the Kd at PfFNT wt-GFP (fluorescent probe titrated against 10 nM PfFNT-GFP, 1% LMNG, 1 h ambient temperature, read-out: KD (equilibrium saturation binding)) is 72 nM. Moreover, on PfFNT wt-GFP, the “Active Receptor (%)” value was determined as 100% and the “obtained concentration of complexes in saturation binding” value is recorded as 6 nM. In addition, on PfFNT G107S-GFP (fluorescent probe BH267.meta-DY647 150 nM, competitor up to 10 µM, read-out: Ki Competitor), the inhibitory constant (Ki) was found to be 417 ± 16 nM. In addition, the “concentration blocking FNT-type lactate transporters” value in assay [1] was “sub-micromolar”.
As for `CCN1/C(=C/C=C/C=C/C2=[N+](CC)c3ccc(S(=O)(=O)O)cc3C2(C)CCCC(=O)NCCOCCOCCOCCOCCC(=O)NCCCOc2ccc(C(=O)/C=C(\O)C(F)(F)C(F)(F)F)cn2)C(C)(C)c2cc(S(=O)(=O)[O-])ccc21` (stereo not shown) [BH267.meta-DY647], at PfFNT wt-GFP, the Kd is 72 nM and the “Active Receptor (%)” value is recorded as 100%.
